The results in this text go back to patent publication US20020081733A1, “METHOD TO PREPARE DRUG-RESISTANT, NON-MALIGNANT HEMATOPOIETIC CELLS” (priority 1998, published 2002).

For assay [1], the system named is CML 34^+DR^+ CFC and LTC-IC. The assay is described as follows: MTX sensitivity of NL and CML CFC and LTC-IC (serum-free methylcellulose assay / LTC). Format: cell-based, human. Conditions: increasing MTX concentrations, FIG. 2A, 2B. The method, then: (§1) FIG. 2. Drug sensitivity of untransduced cells. A) NL and CML 34^+DR^+ cells were plated in a serum-free methylcellulose assay with increasing MTX concentrations to determine the MTX sensitivity of CFC. B) NL 34^+DR^− cells (LTC-IC) and CML 34^+DR^+ (Ph^+ LTC-IC) cells were incubated for 1 week in serum-free medium and cytokines with increasing MTX concentrations and then replated in LTC for 5 weeks. The number of MTX resistant LTC-IC was determined by replating LTC derived progeny in methylcellulose without […]. C) NL and CML 34^+DR^+ cells were plated directly in methylcellulose with increasing concentrations of taxol. D) NL 34^+DR^− cells (LTC-IC) and CML 34^+DR^+ (Ph^+LTC-IC) were plated in liquid culture for 7 days with increasing concentrations of taxol and then replated in LTC.
To determine the MTX sensitivity of normal (NL) and CML CFC cells, NL and CML 34^+DR^+ cells were plated in a serum-free methylcellulose assay with increasing MTX concentrations (FIG. 2A). To determine the MTX sensitivity of NL and CML LTC-IC cells, NL 34^+DR^− cells (LTC-IC) and CML 34^+DR^+ (Ph^+ LTC-IC) cells were also incubated for I week in serum-free medium and cytokines, with increasing MTX concentrations. The cells were then replated in LTC for 5 weeks. The number of MTX resistant LTC-IC was determined by replating LTC derived progeny in methylcellulose assay without MTX (FIG. 2B).

The subject of the next assay is CML and NL progenitors. Nature of the assay: Taxol sensitivity of NL and CML cells (methylcellulose / liquid culture then LTC). Conditions: increasing concentrations of taxol; FIG. 2C, 2D. It is filed as cell-based, human. Here is the method:
as §1
To determine the taxol sensitivity of NL and CML cells, NL and CML 34^+DR^+ and 34^+DR^− cells were plated either in liquid culture for 7 days with increasing concentrations of taxol and then replated in LTC (FIG. 2D). NL and CML cells were also plated directly in methylcellulose with increasing concentrations of taxol (FIG. 2C).

As to `CN(Cc1cnc2nc(N)nc(N)c2n1)c1ccc(C(=O)N[C@@H](CCC(=O)O)C(=O)O)cc1` [MTX, methotrexate], in assay [1], the “MTX sensitivity of CML 34+DR+ CFC and LTC-IC relative to NL 34+DR+ CFC and NL 34+DR− LTC-IC” value was “at least equally sensitive”. On to `CC(=O)O[C@H]1C(=O)[C@@]2(C)[C@H]([C@H](OC(=O)c3ccccc3)[C@]3(O)C[C@H](OC(=O)[C@H](O)[C@@H](NC(=O)c4ccccc4)c4ccccc4)C(C)=C1C3(C)C)[C@]1(OC(C)=O)CO[C@@H]1C[C@@H]2O` [taxol], for which the “taxol sensitivity of CML versus NL progenitors” value in the assay with CML and NL progenitors is listed as “equal sensitivity”.
